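Dose response: 5 concentrations. Exposure: 48 h. Format: 96-well plates. Endpoint: linear interpolation; highest concentration if not reached. Abbreviation: GI50, concentration required for 50% inhibition of growth.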 Active and inactive are the calls of the source. Rule as the data show it: active = GI50 up to about 1.1 µM and inactive = higher.
What was measured:
Assay in all cases: inhibition of tumour cell growth, NCI panel, 48 h
A498 = system: A498
OVCAR-8 = system: OVCAR-8
DMS-273 = system: DMS-273
T47D = system: T47D
DU-145 = system: DU-145
SK-MEL-28 = system: SK-MEL-28
SF-268 = system: SF-268
BT-549 = system: BT-549
ACHN = system: ACHN
HOP-92 = system: HOP-92
OVCAR-3 = system: OVCAR-3
DLD-1 = system: DLD-1
SK-OV-3 = system: SK-OV-3
U-251 = system: U-251
MDA-MB-435 = system: MDA-MB-435
RXF 393 = system: RXF 393
SF-295 = system: SF-295
NCI-H522 = system: NCI-H522
NCI-H460 = system: NCI-H460
TK-10 = system: TK-10

Measured: GI50

C[C@H]1CCC2C(OC(=O)[C@@H]2CN(C)C)[C@]2(C)C(=O)C=CC12O (stereo not given in full)
inactive: A498 14.2 µM | OVCAR-8 1.57 µM | DMS-273 3.12 µM | T47D 3.2 µM | DU-145 10.8 µM | SK-MEL-28 2.43 µM | SF-268 6.79 µM | BT-549 5.37 µM | ACHN 2.17 µM | HOP-92 2.79 µM | OVCAR-3 3.76 µM | DLD-1 2.99 µM | SK-OV-3 16.9 µM | U-251 17.5 µM | MDA-MB-435 4.47 µM | RXF 393 1.65 µM | SF-295 13.2 µM | NCI-H522 1.32 µM | NCI-H460 12.5 µM | TK-10 6.68 µM

Source: ChEMBL document CHEMBL1201862, “PubChem BioAssay data set” (2004)
